| SMILES | melting point |
| --- | --- |
| CCNc1nc2c(N)nc(C)c(C)c2n1CC(C)C | 168 to 170 °C |
| CCOC(=O)c1c(Br)nn(C)c1S(N)(=O)=O | 96 to 98 °C |
| O=[N+]([O-])c1ccc2c(C3=CN4CCC3CC4)c[nH]c2c1 | 274 to 276 °C |
| CCOC(=O)c1cnc2ccnn2c1O | 81 °C |
| CC(C)c1nc(CN(C)C(=O)N[C@H](C(=O)O)C(C)C)cs1 | 82.8 to 93.8 °C |
| O=S(=O)(c1ccc(-c2ccc(C(O)CCl)cc2)cc1)C(F)F (stereo not drawn) | 104 to 107 °C |
| COc1ccccc1-n1c(CCl)nc2ccccc2c1=O | 193 to 194 °C |
| Cc1c(C)c2c(c(C)c1NC(=O)c1ccc(Cl)cc1)C(c1ccc(C(C)C)cc1)C(C)(C)O2 (stereo not drawn) | 201 to 203 °C |
| COC(C)(C)C(=O)COc1ccc(Cl)cc1Cl | 45.5 to 47.5 °C |
| O=[N+]([O-])c1cnn2cnc3ccccc3c12 | 177 to 178 °C |
| CNC(=O)c1cc2nc(C(F)(F)F)ccc2c(C)c1NC(=O)c1cc(C(F)(F)F)nn1-c1ncccc1Cl | 227 to 230 °C |
| CNC(=O)Oc1cccc(C2CCCN2CCN2C(=O)c3ccccc3C2=O)c1 (stereo not drawn) | 96 to 98 °C |
| O=[N+]([O-])c1ccc2c(c1)OC(C1(CCCCCl)OCCO1)CO2 (stereo not drawn) | 74 to 76 °C |
| N#CCCNC(=O)C1=CC(CF)(CF)Oc2ccc(Cl)cc21 | 134 to 136 °C |
| N#Cc1cccc2c1OCCN2 | 79 to 80 °C |
| CC(C)(C)OC(=O)C=Cc1ccc2c(c1)OCO2 | 82 to 83 °C |
| COC(=O)c1cscc1OC(C)=O | 56 to 58 °C |
| C[C@@H]1Nc2nc(Cl)ccc2NC1=O | 236 to 237 °C |
| COc1ccc(N2c3ccccc3Sc3ccccc32)cc1 | 173 to 176 °C |
| CCNc1ccc(NS(=O)(=O)c2ccc(C)cc2)c(C)c1 | 162 to 163 °C |
| COc1ccc(C2(C#Cc3cccc(-c4nnc(C)s4)c3)CCC(O)CC2)cc1OC1CCCC1 (stereo not drawn) | 129 to 130 °C |

Results, then the compound that gave them:

| melting point | SMILES |
| --- | --- |
| 182 to 184 °C | O=C(O)c1c(NCc2ccccc2)nc2ccc(Br)cc2c1Cl |
| 60 to 62 °C | CCCN(CCC)C1COc2cccc(C(=O)c3ccc(F)cc3)c2C1 (stereo not drawn) |
| 206 to 207 °C | COc1ccc(CNC(=O)c2cn3c(=O)n(Cc4ccc(Cl)c(Cl)c4)c(=O)cc3s2)cc1 |
| 87 to 90 °C | CCCCOc1ccc(C(=O)N2CCCCc3sccc32)cc1 |
| 168 to 170 °C | O=C1COc2ccc(C3=Nc4ccccc4SC3c3ccccn3)cc2N1 (stereo not drawn) |
| 97 to 100 °C | CCc1c(-c2ccc(OC)cc2)c2c(CO)cc3cccc1n32 |
| 142 to 143 °C | CCC1(CC(=O)O)OCC(Cc2ccccc2)c2c1[nH]c1ccccc21 (single isomer, unassigned; (-)) |
| 135 to 137 °C | CCCCc1nn(-c2cc([N+](=O)[O-])ccc2C(F)(F)F)c(=O)n1Cc1ccc(-c2ccccc2S(=O)(=O)NC(C)(C)C)cc1 |
| > 290 °C | CCOC(=O)c1[nH]c2cc(Cl)cc(Cl)c2c1NCC(=O)c1ccccc1F |
| 187 to 188 °C | O=C(NNC(=O)c1ncnc2[nH]ccc12)OCc1ccccc1 |
| 225 °C | CNC(=O)c1ccccc1Nc1nc(Nc2cc3c(cc2OC)CCN(CC(=O)N(C)C)CC3)ncc1Br |
| 141 to 149 °C | CC(C)(C)C1Cc2cc(N3C[C@H](CO)OC3=O)ccc2N1C(=O)OCc1ccccc1 (stereo partly drawn) |
| 141 to 142 °C | CCN(CC)C(=O)Oc1c2c(nn1-c1ccc(F)cc1)CCc1cc(F)ccc1-2 |
| 154 to 156 °C | CCOC(=O)c1c(Cn2ccccc2=O)nc2cc(OC)c(OC)cc2c1-c1ccc(OC)c(OC)c1 |
| 223 to 224 °C | COc1ccc(N(C(=O)CN2C(=O)C(Cc3nn(Cc4ccccc4)c4ccccc34)(OC)C(=O)N(c3cccnc3)c3ccccc32)C(C)C)cc1 (stereo not drawn) |
| 68 °C | CC(C)(Cc1ccc(F)cc1)NC(=O)c1coc(C2C3CCC(O3)C2Cc2ccccc2CCC(=O)O)n1 (stereo not drawn) |
| 133 to 137 °C | O=C1CN(C(=O)OCc2ccccc2)CC(=O)O1 |

— a melting point compilation (Tetko et al.; mined from patent text by program, amines drawn as free bases though some values may be those of a salt)
